Measurements: patent publication US10513500B2, “Crystalline forms of Lesinurad” (Apotex Inc., priority 2016, dated 2019)
Entries after “also recorded” stand apart in the source; their conditions may differ. Each block holds one compound with its values, some of them ahead of it.

Assays:
[1] = certain aqueous conditions, compared with Form 1; cited from earlier work
[2] = PXRD study of crystal form stability on storage; type: physicochemical
Method: Lesinurad Form APO-I can be characterized by a PXRD diffractogram comprising, among other peaks, characteristic peaks, expressed in degrees 2θ (±0.2°), at 7.8°, 15.1° and 27.0°. Preferably, the PXRD diffractogram further comprises at least three peaks, expressed in degrees 2θ (±0.2°), selected from the group consisting of: 14.5°, 15.6°, 16.4°, 17.6°, 18.5°, 19.9°, 22.1°, 23.5°, 25.9° and 29.3°. More preferably, the PXRD diffractogram further comprises peaks, expressed in degrees 2θ (±0.2°), at 14.5°, 15.6°, 16.4°, 17.6°, 18.5°, 19.9°, 22.1°, 23.5°, 25.9° and 29.3°. PXRD studies of a capped sample of Lesinurad Form APO-I have shown that this crystal form is stable following storage in a stability chamber maintained at 27° C./60% RH for 17 days.
Lesinurad Form APO-II can be characterized by a PXRD diffractogram comprising, among other peaks, characteristic peaks, expressed in degrees 2θ (±0.2°), at 7.9°, 15.2°, 16.5° and 25.4°. Preferably, the PXRD diffractogram further comprises at least two peaks, expressed in degrees 2θ (±0.2°), selected from the group consisting of: 14.4°, 15.7°, 17.7°, 18.4°, 22.1°, 22.8°, 23.5°, 26.5°, 28.8° and 29.3°. More preferably, the PXRD diffractogram further comprises peaks, expressed in degrees 2θ (±0.2°), at 14.4°, 15.7°, 17.7°, 18.4°, 22.1°, 22.8°, 23.5°, 26.5°, 28.8° and 29.3°. PXRD studies of a capped sample of Lesinurad Form APO-II have shown that this crystal form is stable following storage at room temperature and ambient humidity for 28 days.
Lesinurad Form APO-III can be characterized by a PXRD diffractogram comprising, among other peaks, characteristic peaks, expressed in degrees 2θ (±0.2°), at 6.2° and 19.9°. Preferably, the PXRD diffractogram further comprises at least four peaks, expressed in degrees 2θ (±0.2°), selected from the group consisting of: 7.6, 10.3°, 14.1°, 15.3°, 17.8°, 21.1°, 23.4°, 25.7° and 27.2°. More preferably, the PXRD diffractogram further comprises peaks, expressed in degrees 2θ (±0.2°), at 7.6°, 10.3°, 14.1°, 15.3°, 17.8°, 21.1°, 23.4°, 25.7° and 27.2°. PXRD studies of capped and uncapped samples of Lesinurad Form APO-III have shown that this crystal form is stable following storage in stability chambers maintained at 27° C./60% RH and 40° C./75% RH for 18 days.
Data were acquired on a PANanalytical X-Pert Pro MPD diffractometer with fixed divergence slits and an X'Celerator RTMS detector. The diffractometer was configured in Bragg-Brentano geometry; data was collected over a 2-theta range of 3° to 40° using CuKα radiation at a power of 40 mA and 45 kV. […] was removed using a divergent beam nickel filter. A step size of 0.017° was used. Samples were rotated to reduce preferred orientation effects. Samples were lightly ground prior to analysis. […]

[3] = Hygroscopicity on storage in humid, high temperature environment; type: physicochemical; settings: stress conditions of Table 5 (open sample, 40° C./75% RH, 21 days)
Method: (§1) The stability of Lesinurad Form APO-III was assessed under various stress conditions as outlined in Table 5.
The title solid form of Lesinurad was prepared according to the procedure in Example 14 of WO 2015/095703 A1. A suspension of Lesinurad (1 g) in ethyl acetate (63 mL) was sonicated at room temperature for 30 minutes in order to achieve dissolution. Proline (570 mg) was added to the solution, and the resulting suspension was stirred at room temperature for 26 hours, at which time the suspension was isolated by filtration to afford a solid (872.9 mg, 68% yield) having a PXRD diffractogram consistent with FIG. 22 in WO 2015/095703 A1. […]

[4] = Stability study under stress conditions (impurities, area %); type: physicochemical; settings: for Major Unidentified Impurity: RRT in brackets
Method: as §1

[5] = primary amine group; cited from earlier work
[6] = dry heat, heat/humidity and light exposure
[7] = light exposure 200 W·hr/m^2 UV + 1.2M LUX hr fluorescent
[8] = open sample, dry heat, solid state, 60° C./ambient RH, 21 days
[9] = open sample, heat/humidity, solid state, 40° C./75% RH, 21 days
[10] = sample wrapped in foil (control), light exposure 200 W·hr/m^2 UV + 1.2M LUX hr fluorescent

Compound: O=C(O)CSc1nnc(Br)n1-c1ccc(C2CC2)c2ccccc12 [Form 2, Lesinurad]
solubility [1]: lower solubility than Form 1

Compound: O=C(O)CSc1nnc(Br)n1-c1ccc(C2CC2)c2ccccc12 [Lesinurad Form APO-I, Lesinurad]
crystal form stability by PXRD ([2]; capped sample, stability chamber 27° C./60% RH, 17 days): stable; also recorded: no change

Compound: O=C(O)[C@@H]1CCCN1 [Proline]
pKa [5]: approximately 10.6

Continued, values first:

crystal form stability by PXRD ([2]; capped sample, room temperature and ambient humidity, 28 days): no change; also recorded: stable
Compound: O=C(O)CSc1nnc(Br)n1-c1ccc(C2CC2)c2ccccc12 [Lesinurad Form APO-II, Lesinurad]

crystal form stability by PXRD ([2]; capped and uncapped samples, 27° C./60% RH, 18 days): no change; also recorded: stable | crystal form stability by PXRD ([2]; capped and uncapped samples, 40° C./75% RH, 18 days): no change; also recorded: stable | hygroscopicity [3]: did not exhibit signs of hygroscopicity | Total Identified Impurity ([4]; Non-stressed sample): 0.09 area % | Total Impurities ([4]; Non-stressed sample): 0.33 area % | Total Unidentified Impurity ([4]; Non-stressed sample): 0.24 area % | Major Unidentified Impurity ([4]; Non-stressed sample): 0.08 (0.91) area % | loss of Lesinurad [4, 6]: no significant loss | stability to stress conditions [4, 6]: good stability | total degradation ([4]; dry heat, heat/humidity and light exposure (Table 5)): less than 0.10% | chemical and physical stability ([4]; humid and high temperature environment): chemically and physically stable | Total Identified Impurity [4, 7]: 0.10 area % | Total Impurities [4, 7]: 0.46 area % | Total Unidentified Impurity [4, 7]: 0.35 area % | Major Unidentified Impurity [4, 7]: 0.09 (0.92) area % | Total Identified Impurity [4, 8]: 0.10 area % | Total Impurities [4, 8]: 0.40 area % | Total Unidentified Impurity [4, 8]: 0.30 area % | Major Unidentified Impurity [4, 8]: 0.09 (0.91) area % | Total Identified Impurity [4, 9]: 0.09 area % | Total Impurities [4, 9]: 0.38 area % | Total Unidentified Impurity [4, 9]: 0.29 area % | Major Unidentified Impurity [4, 9]: 0.09 (0.91) area % | Total Identified Impurity [4, 10]: 0.10 area % | Total Impurities [4, 10]: 0.42 area % | Total Unidentified Impurity [4, 10]: 0.32 area % | Major Unidentified Impurity [4, 10]: 0.09 (0.92) area %
Compound: O=C(O)CSc1nnc(Br)n1-c1ccc(C2CC2)c2ccccc12 [Lesinurad Form APO-III, Lesinurad]
